Structures are written as SMILES. Where “and” joins values, the source holds several entries; their conditions need not be identical. Equal values may be shown once.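 Values below derive from 48-hour exposures of cells grown in 96-well plates, with endpoints linearly interpolated between the two concentrations bracketing the appropriate inhibition level. The concentration for 50% growth inhibition is given as GI50. TGI marks complete inhibition of growth.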 Where only a bound is given, the exact number is not on record here.

Some test systems named below: BT-549 breast; HOP-92 NSCLC; LOX IMVI melanoma; CAKI-1 renal; HS 578T breast; SK-MEL-5 melanoma; HOP-62 NSCLC; SNB-75 CNS; OVCAR-5 ovarian; PC-3 prostate.
What all share (experiment): NCI anticancer screen, dose series, 48 h

In the case of `COc1cc(/C=C2\CCC/C(=C\c3cc(CN4CCCC4)c(O)c(OC)c3)C2=O)cc(CN2CCCC2)c1O`, the GI50 in the assay with BT-549 breast was 4.79 µM; with HOP-92 NSCLC it was 2110 nM; in the assay with LOX IMVI melanoma, 1740 nM; in the assay on CAKI-1 renal it was 5.51 µM; in the assay on HS 578T breast it was 5.75 µM; in the assay on SK-MEL-5 melanoma it was 4.12 µM. For the same compound, the GI50 in the assay with HOP-62 NSCLC is 2.93 µM; in the assay with SNB-75 CNS, 5020 nM; in the assay on OVCAR-5 ovarian, 4.18 µM; in the assay on PC-3 prostate, 3.88 µM. The TGI with BT-549 breast was 17.8 µM; in the assay on HOP-92 NSCLC, 11.8 µM; in the assay on LOX IMVI melanoma it was 3.36 µM; in the assay with CAKI-1 renal, 17.7 µM; in the assay on HS 578T breast it was 50.9 µM; in the assay on SK-MEL-5 melanoma it was 15.5 µM. Besides, the TGI with HOP-62 NSCLC is 9.35 µM; with SNB-75 CNS, 47.9 µM; with OVCAR-5 ovarian, 13.4 µM; with PC-3 prostate, 16.6 µM.
Consider `CC(C)c1cnc(-c2cc(Cl)ccc2F)cc1Nc1ccncc1C(=O)NC(CO)CO`, for which the GI50 in the assay on BT-549 breast is 14.8 µM; in the assay on HOP-92 NSCLC it was 1330 nM; in the assay with LOX IMVI melanoma, 13700 nM; with CAKI-1 renal it was 6.28 µM; in the assay on HS 578T breast it was 7.31 µM; in the assay on SK-MEL-5 melanoma it was 14.2 µM. Moreover, the GI50 in the assay with HOP-62 NSCLC was 12.8 µM; in the assay on SNB-75 CNS it was 51.5 nM; with OVCAR-5 ovarian, 16.2 µM; in the assay on PC-3 prostate it was 13.8 µM. The TGI came out at 31.9 µM with BT-549 breast; 35.4 µM in the assay with HOP-92 NSCLC; 27.9 µM with LOX IMVI melanoma; 68.7 µM with CAKI-1 renal; 30.6 µM in the assay with HS 578T breast; 27.5 µM in the assay on SK-MEL-5 melanoma. In addition, the TGI came to 32.9 µM with HOP-62 NSCLC, 25.9 µM in the assay on SNB-75 CNS, 39.6 µM with OVCAR-5 ovarian and 32.6 µM in the assay with PC-3 prostate.
On to `O=C1CCc2cc(Br)ccc2O1`, for which the TGI in the assay on BT-549 breast, in the assay with HOP-92 NSCLC, in the assay on LOX IMVI melanoma, in the assay on CAKI-1 renal, in the assay with HS 578T breast and with SK-MEL-5 melanoma was greater than 100 µM each time. Moreover, the TGI in the assay on HOP-62 NSCLC is greater than 100 µM; with SNB-75 CNS, 92.8 µM; with OVCAR-5 ovarian, greater than 100 µM; in the assay on PC-3 prostate it was greater than 100 µM.
With `CCCCCCCCCCCCC(O)C1CCC(C(O)CCCCC(O)CCCCCC2CC(CC(C)=O)C(=O)O2)O1` (stereo unspecified), the TGI in the assay with BT-549 breast is 5.6 µM; in the assay on HOP-92 NSCLC, 9.29 µM and 12.5 µM; in the assay on LOX IMVI melanoma it was 2.24 µM and 9.49 µM; in the assay on CAKI-1 renal, 22.3 µM; in the assay on HS 578T breast, 3.8 µM; with SK-MEL-5 melanoma, 2.11 µM and 5.09 µM. In addition, the TGI in the assay with HOP-62 NSCLC is 19.1 µM; with SNB-75 CNS, 5.42 µM and 16.4 µM; in the assay with OVCAR-5 ovarian, 23.6 µM; with PC-3 prostate it was 4.24 µM. For the same compound, the GI50 in the assay on HOP-92 NSCLC is 3380 nM; in the assay with LOX IMVI melanoma it was 1060 nM; with CAKI-1 renal, 2.29 µM; in the assay with SK-MEL-5 melanoma, 0.112 µM; in the assay with HOP-62 NSCLC, 2.74 µM; with SNB-75 CNS, 1250 nM. Besides, the GI50 with OVCAR-5 ovarian is 3.92 µM.
For `Cc1c(O)cccc1C(=O)N[C@@H](CSc1ccccc1)[C@H](O)CN1C[C@H]2CCCC[C@H]2C[C@H]1C(=O)NC(C)(C)C`, the GI50 with BT-549 breast is 4.97 µM and 3.88 µM; in the assay with HOP-92 NSCLC, 2470 nM and 6250 nM; with LOX IMVI melanoma it was 5270 nM and 5390 nM; with CAKI-1 renal, 2.57 µM and 9.32 µM; with HS 578T breast it was 4.82 µM and 4.87 µM; with SK-MEL-5 melanoma, 3.12 µM and 5.11 µM. Further, the GI50 was 7.26 µM and 5 µM with HOP-62 NSCLC; 2770 nM and 2580 nM in the assay on SNB-75 CNS; 8.95 µM and 6.31 µM in the assay on OVCAR-5 ovarian; 2.95 µM and 3.94 µM in the assay on PC-3 prostate. Moreover, the TGI in the assay with BT-549 breast was 21.1 µM and 17.1 µM; in the assay on HOP-92 NSCLC, 7.62 µM and 25.2 µM; in the assay with LOX IMVI melanoma it was 18.8 µM and 15.8 µM; in the assay on CAKI-1 renal it was 6.56 µM and > 37.8 µM; with HS 578T breast, > 58 µM and 20.3 µM; in the assay with SK-MEL-5 melanoma, 13.5 µM and 11.7 µM. In addition, the TGI in the assay on HOP-62 NSCLC is 21.3 µM and 14.6 µM; in the assay with SNB-75 CNS, 14.5 µM and 18.4 µM; in the assay on OVCAR-5 ovarian, 31.6 µM and 19 µM; with PC-3 prostate, 11.1 µM and > 35.1 µM.
For the compound `COc1ccc2nc3cc([N+](=O)[O-])ccc3c(NCCO)c2c1`, the GI50 is 2.88 µM with BT-549 breast; 1860 nM with HOP-92 NSCLC; 2510 nM with LOX IMVI melanoma; 10.1 µM in the assay with CAKI-1 renal; 2.94 µM with HS 578T breast; 1.61 µM in the assay on SK-MEL-5 melanoma. The GI50 in the assay on HOP-62 NSCLC is 2.07 µM; in the assay with SNB-75 CNS, 2920 nM; with OVCAR-5 ovarian, 5.55 µM. In addition, the TGI in the assay with BT-549 breast came out at 7.02 µM; in the assay with HOP-92 NSCLC, 7.02 µM; in the assay with LOX IMVI melanoma it was 9.18 µM; in the assay with CAKI-1 renal, 30 µM; in the assay with HS 578T breast, 26.2 µM; in the assay with SK-MEL-5 melanoma, 3.26 µM. For the same compound, the TGI is 5.19 µM with HOP-62 NSCLC, 16.1 µM in the assay on SNB-75 CNS, 28.1 µM in the assay with OVCAR-5 ovarian and 30 µM in the assay on PC-3 prostate.
Turning to `CC(C)C[C@H](NC(=O)[C@@H](Cc1ccccc1)n1ccc(Nc2ccccc2)cc1=O)B(O)O`, the GI50 is 0.289 µM in the assay with BT-549 breast; 386 nM in the assay on HOP-92 NSCLC; 151 nM with LOX IMVI melanoma; 0.403 µM with CAKI-1 renal; 0.361 µM in the assay with HS 578T breast; 0.321 µM with SK-MEL-5 melanoma. Also, the GI50 is 1.74 µM with HOP-62 NSCLC, 300 nM in the assay with SNB-75 CNS, 1.7 µM in the assay with OVCAR-5 ovarian and 2.25 µM in the assay on PC-3 prostate. Moreover, the TGI in the assay with BT-549 breast came to 2.35 µM; in the assay with HOP-92 NSCLC, 2.45 µM; with LOX IMVI melanoma, 0.409 µM; in the assay with CAKI-1 renal it was 5.45 µM; in the assay with HS 578T breast, 7.06 µM; with SK-MEL-5 melanoma, 1.14 µM. Moreover, the TGI with HOP-62 NSCLC was found to be 7.04 µM; in the assay on SNB-75 CNS, 1.83 µM; with OVCAR-5 ovarian, 8.34 µM; with PC-3 prostate, 19.6 µM.
Take `CCc1ccc(Oc2c(-c3ccc(OCCc4cccc(C(F)(F)F)c4)cc3O)n[nH]c2C(F)(F)F)cc1`: the GI50 in the assay on BT-549 breast was 6.17 µM; in the assay on HOP-92 NSCLC, 1360 nM; with LOX IMVI melanoma, 1940 nM; with CAKI-1 renal, 6.79 µM; with HS 578T breast, 6.04 µM; in the assay with SK-MEL-5 melanoma, 5.13 µM. Also, the GI50 in the assay on HOP-62 NSCLC is 5.76 µM; in the assay on SNB-75 CNS, 5820 nM; with OVCAR-5 ovarian, 7.64 µM; with PC-3 prostate it was 3.7 µM. The TGI is 12.5 µM in the assay on BT-549 breast; 5.01 µM in the assay on HOP-92 NSCLC; 6.89 µM in the assay on LOX IMVI melanoma; 13.3 µM in the assay on CAKI-1 renal; 15.4 µM in the assay on HS 578T breast; 11 µM in the assay with SK-MEL-5 melanoma. The TGI in the assay with HOP-62 NSCLC was determined as 12 µM; with SNB-75 CNS, 12.1 µM; in the assay with OVCAR-5 ovarian, 14.4 µM; with PC-3 prostate, 10.5 µM.

These data come from PubChem BioAssay (NCI).
